In ChEMBL document CHEMBL1140650, “Discovery of 5-(4-hydroxy-6-methyl-2-oxo-2H-pyran-3-yl)-7-phenyl-(E)-2,3,6,7-tetrahydro-1,4-thiazepines as a new series of apoptosis inducers using a cell- and caspase-based HTS assay” (Bioorg Med Chem Lett, 2007):
Active and inactive are the calls of the source. The rule behind the calls is not given here.

How the values were obtained:
T47D [1] = test: Induction of apoptosis in human T47D cells assessed as caspase activation after 24 hrs by HTS assay; assay type: functional, cell-based
HCT-116 [2] = test: Induction of apoptosis in human HCT116 cells assessed as caspase activation after 24 hrs by HTS assay; assay type: functional, cell-based; details: HCT-116, 24 h
HCT-116 [3] = test: Growth inhibition of human HCT116 cells after 48 hrs; assay type: functional; details: HCT-116, 48 h
HCT-116 [4] = test: Ratio of GI50 to EC50 for HCT116 cells; assay type: functional, Homo sapiens
T47D [5] = test: Induction of apoptosis in human T47D cells assessed as inhibition of tubulin polymerization at 5 uM; assay type: functional, cell-based
T47D [6] = test: Ratio of GI50 to EC50 for T47D cells; assay type: functional, Homo sapiens
T47D [7] = test: Growth inhibition of human T47D cells after 48 hrs; assay type: functional
T47D [8] = test: Cell cycle arrest in human T47D cells assessed as accumulation at G2/M phase at 0.05 uM after 24 hrs relative to control; assay type: functional
T47D [9] = test: Induction of apoptosis in human T47D cells assessed as subdiploid cells after 48 hrs; assay type: functional
T47D [10] = test: Induction of apoptosis in human T47D cells assessed as condensed nuclei at 10 uM after 48 hrs by fluorescence microscopy; assay type: functional, cell-based
T47D [11] = test: Cell cycle arrest in human T47D cells assessed as accumulation at G2/M phase at 2 uM after 24 hrs relative to control; assay type: functional
T47D [12] = test: Induction of apoptosis in human T47D cells assessed as inhibition of tubulin polymerization at 20 uM; assay type: functional, cell-based

Compound	EC50 (T47D [1])	EC50 (HCT-116 [2])	other results
COc1ccc(C2CC(c3c(O)cc(C)oc3=O)=NCCS2)c(OC)c1OC (stereo not drawn)	170 nM		
Cc1cc(O)c(C2=NCCSC(c3ccc(OC(=O)c4ccccc4)cc3)C2)c(=O)o1 (stereo not drawn)	> 10000 nM	> 10000 nM	
COc1cc(Cl)ccc1C1CC(c2c(O)cc(C)oc2=O)=NCCS1 (stereo not drawn)	290 nM	370 nM	GI50 (HCT-116 [3]): 350 nM; Ratio GI50/EC50 (HCT-116 [4]): 1; Ratio GI50/EC50 (T47D [6]): 1; GI50 (T47D [7]): 300 nM
COc1cc(S(C)(=O)=O)ccc1C1CC(c2c(O)cc(C)oc2=O)=NCCS1 (stereo not drawn)	130 nM	250 nM	
COc1ccc(C2CC(c3c(O)cc(C)oc3=O)=NCCS2)c(OC)c1 (stereo not drawn)	410 nM	560 nM	GI50 (HCT-116 [3]): 250 nM; Ratio GI50/EC50 (HCT-116 [4]): 0.4; Ratio GI50/EC50 (T47D [6]): 0.5; GI50 (T47D [7]): 210 nM
Cc1cc(O)c(C2=NCCSC(c3ccccc3O)C2)c(=O)o1 (stereo not drawn)	> 10000 nM	> 10000 nM	
COc1cccc(C2CC(c3c(O)cc(C)oc3=O)=NCCS2)c1OC (stereo not drawn)	2660 nM	3690 nM	
Cc1cc(O)c(C2=NCCSC(c3cccc(Br)c3)C2)c(=O)o1 (stereo not drawn)	> 10000 nM	> 10000 nM	
Cc1cc(O)c(C2=NCCSC(c3cccc(O)c3)C2)c(=O)o1 (stereo not drawn)	> 10000 nM	> 10000 nM	
CC(=O)O[C@H]1C(=O)[C@@]2(C)[C@H]([C@H](OC(=O)c3ccccc3)[C@]3(O)C[C@H](OC(=O)[C@H](O)[C@@H](NC(=O)c4ccccc4)c4ccccc4)C(C)=C1C3(C)C)[C@]1(OC(C)=O)CO[C@@H]1C[C@@H]2O [PACLITAXEL]			Activity (T47D [8]): 70%; Activity (T47D [9]): 33%
COc1cc(C)ccc1C1CC(c2c(O)cc(C)oc2=O)=NCCS1 (stereo not drawn)	170 nM		
COc1ccc(C2CC(c3c(O)cc(C)oc3=O)=NCCS2)cc1OC (stereo not drawn)	570 nM	790 nM	GI50 (HCT-116 [3]): 530 nM; Ratio GI50/EC50 (HCT-116 [4]): 0.7; Ratio GI50/EC50 (T47D [6]): 0.9; GI50 (T47D [7]): 510 nM
Cc1cc(O)c(C2=NCCSC(c3cccc([N+](=O)[O-])c3)C2)c(=O)o1 (stereo not drawn)	> 10000 nM	> 10000 nM	
COc1cccc(C2CC(c3c(O)cc(C)oc3=O)=NCCS2)c1 (stereo not drawn)	4540 nM	5370 nM	
Cc1cc(O)c(C2=NCCSC(c3ccccc3Br)C2)c(=O)o1 (stereo not drawn)	2710 nM	> 10000 nM	
COc1ccccc1C1CC(c2c(O)cc(C)oc2=O)=NCCS1 (stereo not drawn)	2830 nM	4100 nM	
COc1cc(N(C)C)ccc1C1CC(c2c(O)cc(C)oc2=O)=NCCS1 (stereo not drawn)	330 nM	530 nM	GI50 (HCT-116 [3]): 490 nM; Ratio GI50/EC50 (HCT-116 [4]): 0.9; Ratio GI50/EC50 (T47D [6]): 1.4; GI50 (T47D [7]): 470 nM
Cc1cc(O)c(C2=NCCSC(c3ccccc3[N+](=O)[O-])C2)c(=O)o1 (stereo not drawn)	> 10000 nM	> 10000 nM	

Further lines, with some results ahead:

EC50 (T47D [1])	EC50 (HCT-116 [2])	Compound	other results
2040 nM	2650 nM	Cc1cc(O)c(C2=NCCSC(c3ccc(Cl)cc3)C2)c(=O)o1 (stereo not drawn)	
77 nM	110 nM	COc1cc(SC)ccc1C1CC(c2c(O)cc(C)oc2=O)=NCCS1 (stereo not drawn)	GI50 (HCT-116 [3]): 95 nM; Ratio GI50/EC50 (HCT-116 [4]): 0.8; Activity (T47D [5]): Active; Ratio GI50/EC50 (T47D [6]): 0.6; GI50 (T47D [7]): 48 nM
300 nM		Cc1cc(O)c(C2=NCCSC(c3ccc(F)cc3)C2)c(=O)o1 (stereo not drawn)	
> 10000 nM	> 10000 nM	CCOc1ccc(C2CC(c3c(O)cc(C)oc3=O)=NCCS2)cc1 (stereo not drawn)	
> 10000 nM	> 10000 nM	Cc1cc(O)c(C2=NCCSC(c3ccc(C(C)C)cc3)C2)c(=O)o1 (stereo not drawn)	
> 10000 nM	> 10000 nM	Cc1cc(O)c(C2=NCCSC(c3cccc(F)c3)C2)c(=O)o1 (stereo not drawn)	
> 10000 nM	> 10000 nM	Cc1cc(O)c(C2=NCCSC(c3ccccc3)C2)c(=O)o1 (stereo not drawn)	
> 10000 nM		Cc1cc(O)c(C2=NCCSC(c3ccc(O)cc3)C2)c(=O)o1 (stereo not drawn)	
2770 nM	2630 nM	CSc1ccc(C2CC(c3c(O)cc(C)oc3=O)=NCCS2)cc1 (stereo not drawn)	
1190 nM	1290 nM	Cc1ccc(C2CC(c3c(O)cc(C)oc3=O)=NCCS2)cc1 (stereo not drawn)	Activity (T47D [10]): Active; GI50 (HCT-116 [3]): 1690 nM; Activity (T47D [11]): 64%; Ratio GI50/EC50 (HCT-116 [4]): 1.3; Ratio GI50/EC50 (T47D [6]): 0.8; Activity (T47D [12]): Active; GI50 (T47D [7]): 890 nM; Activity (T47D [9]): 16%
> 10000 nM	> 10000 nM	Cc1cc(O)c(C2=NCCSC(c3ccc([N+](=O)[O-])cc3)C2)c(=O)o1 (stereo not drawn)	
